Results reported in patent US8734777B2, “Heterocyclic antiviral compounds” (priority 2010, dated 2014).

Experiments:
[1] = target: T1, HCV polymerase (NS5B570n-Con1) (Hepatitis C virus genotype 1b, UniProt Q9WMX2); assay: HCV NS5B RNA polymerase activity assay; assay type: biochemical, HCV Con1 strain
T1 construct: contains a 21 amino acid deletion at the C-terminus relative to the full-length HCV polymerase; 6-histidine (N); made in house; host or cells: E. coli strain BL21(DE) pLysS, plasmid pET17b
Protocol: The enzymatic activity of HCV polymerase (NS5B570n-Con1) was measured as the incorporation of radiolabeled nucleotide monophosphates into acid insoluble RNA products. Unincorporated radiolabeled substrate was removed by filtration and scintillant was added to the washed and dried filter plate containing radiolabeled RNA product. The amount of RNA product generated by NS5B570-Con1 at the end of the reaction was directly proportional to the amount of light emitted by the scintillant.
The N-terminal 6-histidine tagged HCV polymerase, derived from HCV Con1 strain, genotype 1b (NS5B570n-Con1) contains a 21 amino acid deletion at the C-terminus relative to the full-length HCV polymerase and was purified from E. coli strain BL21(DE) pLysS. The construct, containing the coding sequence of HCV NS5B Con1 (GenBank accession number AJ242654) was inserted into the plasmid construct pET17b, downstream of a T7 promoter expression cassette and transformed into E. coli. A single colony was grown overnight as a starter culture and later used inoculate 10 L of LB media supplemented with 100 μg/mL ampicillin at 37° C. Protein expression was induced by the addition of 0.25 mM isopropyl-β-D-thiogalactopyranoside (IPTG) when optical density at […] of the culture was between 0.6 and 0.8 and cells were harvested after 16 to 18 h at 30° C. NS5B570n-Con1 was purified to homogeneity using a three-step protocol including subsequent column chromatography on Ni-NTA, SP-Sepharose HP and Superdex 75 resins. […]
The amount of light emitted from the scintillant was converted to counts per minute (CPM) on a Topcount® plate reader (Perkin-Elmer, Energy Range: Low, Efficiency Mode: Normal, Count Time: 1 min, Background Subtract: none, Cross talk reduction: Off).
Data was analyzed in Excel® (Microsoft®) and ActivityBase® (Idbs®). […] All data was expressed as a percentage of the positive control. […]

[2] = in vitro; settings: human
[3] = tested on: HCV replicon cells (2209-23), genotype 1b replicon; assay: HCV replicon assay (Renilla luciferase reporter); assay type: cell-based, HCV genotype 1b; settings: Hepatitis C virus, 72 h; 2209-23 cells, three days incubation, luciferase activity

Structure (SMILES) | IC50 [1] | CC50 at 3 days [2] | melting point | IC50 [3]
COc1c(C(C)(C)C)cc(-c2ccc[nH]c2=O)c2ccc(-c3ccc(NS(C)(=O)=O)cc3)nc12 [Compound I-1, N-{4-[7-tert-Butyl-8-methoxy-5-(2-oxo-1,2-dihydro-pyridin-3-yl)-quinolin-2-yl]-phenyl}-methanesulfonamide] | 0.6 nM |  |  | 
COc1c(C(C)(C)C)cc(-c2ccc(C)[nH]c2=O)c2ccc(-c3ccc(NS(C)(=O)=O)cc3)nc12 [Compound I-2, N-{4-[7-tert-Butyl-8-methoxy-5-(6-methyl-2-oxo-1,2-dihydro-pyridin-3-yl)-quinolin-2-yl]-phenyl}-methanesulfonamide] | 0.4 nM |  |  | 
COc1c(C(C)(C)C)cc(-n2ccc(=O)[nH]c2=O)c2ccc(-c3ccc(NS(C)(=O)=O)cc3)nc12 [Compound I-3, N-{4-[7-tert-Butyl-5-(2,4-dioxo-3,4-dihydro-2H-pyrimidin-1-yl)-8-methoxy-quinolin-2-yl]-phenyl}-methanesulfonamide] | 0.2 nM | 44000 nM | 275 to 278 °C | 17 nM
